In patent publication US6426197B1, “Polynucleotides encoding a human potassium channel” (SmithKline Beecham, P.L.C., priority 1998, dated 2002):

Target: T1, h-TRAAK (Homo sapiens, UniProt Q9NYG8)
T1 construct: expressed in transfected cells; host or cells: HEK 293
T1 sequence (Q9NYG8 1-393): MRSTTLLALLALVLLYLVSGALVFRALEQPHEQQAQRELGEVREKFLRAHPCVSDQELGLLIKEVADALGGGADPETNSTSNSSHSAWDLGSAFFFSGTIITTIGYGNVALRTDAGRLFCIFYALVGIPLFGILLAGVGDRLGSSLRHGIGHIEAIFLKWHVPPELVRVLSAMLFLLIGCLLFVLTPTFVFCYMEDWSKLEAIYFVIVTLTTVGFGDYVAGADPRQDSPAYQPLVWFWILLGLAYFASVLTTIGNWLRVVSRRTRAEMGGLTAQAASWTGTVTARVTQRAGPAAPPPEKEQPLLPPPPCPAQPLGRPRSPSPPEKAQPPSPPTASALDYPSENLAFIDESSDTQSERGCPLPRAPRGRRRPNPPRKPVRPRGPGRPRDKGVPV
Assay: Whole cell patch clamp recordings in HEK 293 cells transiently transfected with h-TRAAK
Format: cell-based
Description: Electrophysiological Recordings in HEK293 Cells
For whole cell patch clamp recordings cells were placed on the stage of an inverted microscope and continuously superfused with a solution containing, in mM: NaCl 150, KCl 5, HEPES 10, CaCl2 1 and MgCl2 3; pH with NaOH. The patch pipette solution contained in mM: KCl 150, HEPES 10, MgCl2 3 and EGTA 5; pH7.2 with KOH. When cells were voltage clamped at a test potential of −80 mV depolarising pulses elicited rapidly activating, non-inactivating outward currents. At a test potential of +10 mV these currents were considerably greater in amplitude, 300.4 pA±92.9 (n=5) than those recorded from untransfected wild type HEK 293 cells, 94.8 pA +12.6 (n=15). h-TRAAK-mediated currents were potentiated by arachidonic acid over a voltage range from −140 to +60 mV.

fold increase in h-TRAAK-mediated current (10 μM arachidonic acid, test potential of +10 mV): 7.9 ±3.0 fold
effect on h-TRAAK-mediated currents (voltage range from −140 to +60 mV): potentiated
SMILES: CCCCC/C=C\C/C=C\C/C=C\C/C=C\CCCC(=O)O [arachidonic acid]
